Experimental data: patent US5179088A, “1-Carba(dethia)cephalosporin antibiotics” (Eli Lilly and Company, priority 1990, dated 1993)

Key:
Format in all cases: cell-based
Design in all cases: unit not given here
[1] = tested on: Staphylococcus Aureus; assay: in vitro antibacterial activity, agar dilution (Staphylococcus aureus)
Method: (§1) *minimum inhibitory concentrations were determined by the Agardilution

[2] = tested on: Staphylococcus Epi; assay: in vitro antibacterial activity, agar dilution (Staphylococcus epi)
Method: as §1

[3] = tested on: Streptococcus A; assay: in vitro antibacterial activity, agar dilution (Streptococcus A); details: strain C203
Method: as §1

[4] = tested on: Streptococcus pn; assay: in vitro antibacterial activity, agar dilution (Streptococcus pn); details: strain PARK
Method: as §1

[5] = tested on: Streptococcus D; assay: in vitro antibacterial activity, agar dilution (Streptococcus D)
Method: as §1

[6] = tested on: H. Influ.; assay: in vitro antibacterial activity, agar dilution (H. influ.)
Method: as §1

[7] = tested on: E. coli; assay: in vitro antibacterial activity, agar dilution (E. coli)
Method: as §1

[8] = tested on: Klebsiella; assay: in vitro antibacterial activity, agar dilution (Klebsiella)
Method: as §1

[9] = tested on: Enterbacter Aerogenes; assay: in vitro antibacterial activity, agar dilution (Enterobacter aerogenes)
Method: as §1

[10] = tested on: Enterbacter Cloacea; assay: in vitro antibacterial activity, agar dilution (Enterobacter cloacae)
Method: as §1

[11] = tested on: Salmonella; assay: in vitro antibacterial activity, agar dilution (Salmonella)
Method: as §1

[12] = tested on: Pseudomonas; assay: in vitro antibacterial activity, agar dilution (Pseudomonas)
Method: as §1

[13] = tested on: Serratia; assay: in vitro antibacterial activity, agar dilution (Serratia)
Method: as §1

[14] = tested on: Shig. sonn; assay: in vitro antibacterial activity, agar dilution (Shig. sonn); details: strain N9
Method: as §1

[15] = tested on: Proteus morg; assay: in vitro antibacterial activity, agar dilution (Proteus morg); details: strain PR15
Method: as §1

[16] = tested on: Proteus incon; assay: in vitro antibacterial activity, agar dilution (Proteus incon); details: strain PR33
Method: as §1

[17] = tested on: Proteus rett; assay: in vitro antibacterial activity, agar dilution (Proteus rett); details: strain C24
Method: as §1

[18] = tested on: Citro; assay: in vitro antibacterial activity, agar dilution (Citro); details: strain CF17
Method: as §1

[19] = tested on: Acin; assay: in vitro antibacterial activity, agar dilution (Acin); details: strain AC12
Method: as §1

SMILES | minimum inhibitory concentration ([1]; strain S13E) | minimum inhibitory concentration ([1]; strain V41) | minimum inhibitory concentration ([1]; strain X1.1) | minimum inhibitory concentration ([1]; strain X400) | minimum inhibitory concentration ([2]; strain 222) | minimum inhibitory concentration ([2]; strain 270) | minimum inhibitory concentration [3] | minimum inhibitory concentration [4] | minimum inhibitory concentration ([5]; strain 2041) | minimum inhibitory concentration ([5]; strain X66) | minimum inhibitory concentration ([6]; res, strain 76) | minimum inhibitory concentration ([6]; sens, strain C.L.) | minimum inhibitory concentration ([7]; strain EC14) | minimum inhibitory concentration ([7]; strain N10) | minimum inhibitory concentration ([8]; strain KAE) | minimum inhibitory concentration ([8]; strain X26) | minimum inhibitory concentration ([8]; strain X68) | minimum inhibitory concentration ([9]; strain C32) | minimum inhibitory concentration ([9]; strain EB17) | minimum inhibitory concentration ([10]; strain 265A) | other results
CO/N=C(\C(=O)N[C@@H]1C(=O)N2C(C(=O)O)=C(c3csc(-c4ccccc4)n3)CC[C@H]12)c1csc(N)n1 [Example 31, Sodium 7β-[(2-aminothiazol-4-yl)-Z-methoximinoacetylamino]-1-carba-(1-dethia)-3-[2-(2-phenyl)thiazol-4-yl]-3-cephem-4-carboxylate] | 128 | 2 | 1 | > 128 | 2 | 8 | < .008 | < .008 | 4 | > 128 | .03 | .06 | 1 | 2 | 1 | .015 | 1 | 1 | 1 | 64 | minimum inhibitory concentration ([7]; strain TEM): 1; minimum inhibitory concentration ([10]; strain EB5): 1; minimum inhibitory concentration ([11]; strain 1335): 4; minimum inhibitory concentration ([11]; strain X514): 2; minimum inhibitory concentration ([12]; strain PS18): > 128; minimum inhibitory concentration ([12]; strain PS72): > 128; minimum inhibitory concentration ([12]; strain X239): > 128; minimum inhibitory concentration ([12]; strain X528): > 128; minimum inhibitory concentration ([13]; strain SE3): 8; minimum inhibitory concentration ([13]; strain X99): 4; minimum inhibitory concentration [14]: 1; minimum inhibitory concentration [15]: 2; minimum inhibitory concentration [16]: .5; minimum inhibitory concentration [17]: .25; minimum inhibitory concentration [18]: 4; minimum inhibitory concentration [19]: 128
CON=C(C(=O)NC1C(=O)N2C(C(=O)[O-])=C(c3csc(-c4ccc[n+](C)c4)n3)CCC12)c1csc(N)n1 (stereo not drawn) [Example 34, 7β-[(2-aminothiazol-4-yl)-Z-methoximinoacetylamino]-1-carba-(1-dethia)-3-[2-(1-methyl-3-pyridyl)thiazol-4-yl]-3-cephem-4-carboxylic acid] | > 128 | 8 | 1 | 128 | 4 | 16 | .015 | .015 | 128 | > 128 | .015 | .015 | .015 | .03 | .25 | < .008 | .06 | .03 | .03 | 4 | minimum inhibitory concentration ([10]; strain EB5): .125; minimum inhibitory concentration ([11]; strain 1335): .06; minimum inhibitory concentration ([11]; strain X514): .015; minimum inhibitory concentration ([13]; strain SE3): .125; minimum inhibitory concentration ([13]; strain X99): .06; minimum inhibitory concentration [14]: .06; minimum inhibitory concentration [15]: .06; minimum inhibitory concentration [16]: .03; minimum inhibitory concentration [17]: .03; minimum inhibitory concentration [18]: .015; minimum inhibitory concentration [19]: 128
Cn1c([N+](=O)[O-])cnc1-c1nc(C2=C(C(=O)O)N3C(=O)[C@@H](NC(=O)/C(=N\O)c4csc(N)n4)[C@H]3CC2)cs1 [Example 33, 7β-[(2-Aminothiazol-4-yl)-Z-hydroxyiminoacetylamino]-1-carba-(1-dethia)-3-[2-(4-nitro-3-methylimidazol-2-yl)thiazol-4-yl]-3-cephem-4-carboxylicacid] | 4 | .5 | .06 | > 128 | 1 | 4 | < .008 | .015 | 1 | 128 | .015 | .06 | 1 | 2 | 2 | .015 | 1 | 1 | 1 | 16 | minimum inhibitory concentration ([7]; strain TEM): 1; minimum inhibitory concentration ([10]; strain EB5): 1; minimum inhibitory concentration ([11]; strain 1335): 2; minimum inhibitory concentration ([11]; strain X514): .5; minimum inhibitory concentration ([13]; strain SE3): 16; minimum inhibitory concentration ([13]; strain X99): 2; minimum inhibitory concentration [14]: 2; minimum inhibitory concentration [15]: 4; minimum inhibitory concentration [16]: .25; minimum inhibitory concentration [17]: .06; minimum inhibitory concentration [18]: 4; minimum inhibitory concentration [19]: 128
Nc1nc(C2=C(C(=O)O)N3C(=O)[C@@H](NC(=O)[C@H](N)c4ccccc4)[C@H]3CC2)cs1 [Example 41, 7β-(D-phenylglycylamino)-1-carba-(1-dethia)-3-(2-aminothiazol-4-yl)-3-cephem-4-carboxylic acid] | 64 | 32 | 4 | > 128 | 16 | 32 | 2 | 2 | > 128 | > 128 | 32 | 64 | 64 | 128 | 128 | 16 | 128 | 128 | 128 | > 128 | minimum inhibitory concentration ([7]; strain TEM): 64; minimum inhibitory concentration ([10]; strain EB5): 128; minimum inhibitory concentration ([11]; strain 1335): 128; minimum inhibitory concentration ([11]; strain X514): 128; minimum inhibitory concentration ([12]; strain PS18): > 128; minimum inhibitory concentration ([12]; strain PS72): > 128; minimum inhibitory concentration ([12]; strain X239): > 128; minimum inhibitory concentration ([12]; strain X528): > 128; minimum inhibitory concentration ([13]; strain SE3): 128; minimum inhibitory concentration ([13]; strain X99): 128; minimum inhibitory concentration [15]: 128; minimum inhibitory concentration [16]: 128; minimum inhibitory concentration [17]: > 128; minimum inhibitory concentration [18]: > 128; minimum inhibitory concentration [19]: > 128
CO/N=C(\C(=O)N[C@@H]1C(=O)N2C(C(=O)O)=C(c3csc(-c4ccc([N+](=O)[O-])cc4)n3)CC[C@H]12)c1csc(N)n1 [Example 35, Sodium 7β-[(2-aminothiazol-4-yl)-Z-methoximinoacetylamino]-1-carba-(1-dethia)-3-[2-(4-nitrophenyl)thiazol-4-yl]-3-cephem-4-carboxylate] | 32 | 2 | .5 | > 128 | 2 | 4 | < .008 | < .008 | 4 | > 128 | .015 | .03 | .5 | 1 | .5 | < .008 | 1 | .5 | 1 | 16 | minimum inhibitory concentration ([7]; strain TEM): .5; minimum inhibitory concentration ([10]; strain EB5): 1; minimum inhibitory concentration ([11]; strain 1335): 4; minimum inhibitory concentration ([11]; strain X514): 1; minimum inhibitory concentration ([13]; strain SE3): 4; minimum inhibitory concentration ([13]; strain X99): 4; minimum inhibitory concentration [14]: .5; minimum inhibitory concentration [15]: .5; minimum inhibitory concentration [16]: .25; minimum inhibitory concentration [17]: .25; minimum inhibitory concentration [18]: 2; minimum inhibitory concentration [19]: 64
